# Laboratory results from patent US11903999B2, “Combination of AS1411 and SAPC-DOPS for the treatment of glioblastoma multiforme” (University of Cincinnati, priority 2017, dated 2024).
# Key:
# [1] = tested on: Caspase-3 in U87-MG cells; experiment: Caspase-3 levels as a measure of apoptosis (EnzCheck Caspase-3 Assay Kit); type: cell-based; details: 15 μM AS1411 for 72 hrs vs 100 μM TMZ for 48 hrs
# Description: Caspase activity was measured with a […]. Caspase levels were normalized to total cellular protein with BCA protein assay. Error bars show mean +/−SD.
# U87-MG cells were seeded onto standard 60 mm cell culture dishes at 50% confluency. After 24 hrs, 15 μM of AS1411 in DMEM and 100 μM of temozolomide (TMZ) in DMEM were added to each dish. Cells were harvested at 72 hrs and 48 hrs respectively and analyzed using the EnzCheck Caspase-3 Assay Kit from Molecular Probes utilizing the Z-DEVD-AMC substrate (incubated for 30 minutes). Fluorescence excitation/emission: 340/440 nm) was measured with a standard fluorometer.
# [2] = tested on: U87-MG cells; experiment: Cell surface PS (Annexin V-FITC) and propidium iodide by flow cytometry; type: cell-based; details: 6 μM AS1411
# Description: FIG. 3. […] Error bars show mean +/−SD with **p<0.02 by Student's t-test when compared to control (untreated) cells.
# U87-MG cells were seeded onto standard 60 mm cell culture dishes at ˜50% confluency. After 24 hrs, 6 μM of AS1411 in DMEM was added to each dish at 24, 48, and 72 hour time points. Cells were then stained with Annexin V-FITC using a standard staining protocol and evaluated for surface PS levels using flow cytometry.
# [3] = tested on: U87-MG cells; experiment: Methuosis-like vacuolization by microscopy; type: cell-based; details: 15 μM AS1411 for 72 hrs
# Description: FIG. 5. A) AS1411 induces methuosis-like vacuolization in U87-MG Cells, untreated U87-MG cells; B) […] cells treated with 10 μM MIPP for 24 hrs; C) U87-MG cells treated with 15 μM AS1411 for 72 hrs. D) U87-MG cells treated with 15 μM AS1411 for 192 hrs. E) Quantification of number of cells with >5 vacuoles.
# U87-MG cells were grown to approximately 50% confluency in standard flat bottom 6 well cell culture plates. The cells were then treated with either 10 μM MIPP (a compound previously shown to induce methuosis) or 15 μM AS1411 for 72 hrs. Photos were taken comparing the two treatment wells with untreated control cells, using a microscope with camera.
# [4] = tested on: U87-MG cells; details: cited from earlier work
# [5] = tested on: non-GBM tumor cell lines; details: cited from earlier work
substance,measurement,setting,value
5′-d(GGTGGTGGTGGTTGTGGTGGTGGTGG)-3′ [AS1411],caspase activity,[1],does not increase caspase activity as much as the apoptotic drug TMZ
same,propidium iodide (PI) positive (dead) cells,[2],without increasing PI
same,surface PS (Annexin V-FITC),"[2]; 24, 48, 72 hrs",increases surface PS
same,"morphologic changes, vacuolization",[3],induces morphologic changes including vacuolization
same,IC50,[4],10 µM
same,IC50,[5],1 µM
